In patent US3954793A, “1-(2-Propynyl)-1 H-indazole compounds” (priority 1973, dated 1976):
Like-named read-outs stand apart in the source and are kept apart here.

Tests used:
[1] = test system: polyvalent resistant (CH strain) houseflies; experiment: whole plant or invertebrate; format: in vivo; details: CH strain; for percent kill after 24 hours, with Dimetilan: Dimetilan 2 + synergist 4 μg/fly; for percent kill after 24 hours, with GS 13005: GS 13005 1 + synergist 2 μg/fly; for mortality at 10 µg/fly: Musca domestica, topical, 24 h, read-out: percent kill after 24 hours, synergist alone; for mortality at 10 µg/fly / percent kill after 24 hours, synergist alone: insecticide 0, synergist 10 μg/fly; for percent kill after 24 hours, with pyrethrum: Pyrethrum 2 + synergist 4 μg/fly; for percent kill after 24 hours, with GS 13798: GS 13798 1 + synergist 2 μg/fly
Procedure: The effect of O-(2-propynyl) oximes with Dimetilan and with GS 13798 was obtained from tests on polyvalent resistant (CH strain) houseflies that had been chilled and to the dorsal region of which was applied an acetone solution of synergist and insecticide at a ratio of two to one. Duplicate tests were performed using 10 four to five-day old female houseflies per test. After dosage, the flies were put in a plastic petri dish with cotton soaked in a sugar-water solution. These doses of insecticide used without synergist caused 10-40% mortality.
In Table IX, and in the tables following it, the doses of topically applied insecticides and of synergists unless otherwise noted are expressed as micrograms per fly (μg/fly).
The effect of compounds II-C, II-D and II-E with Dimetilan and GS 13798 was determined, following the procedure of Example 5, from tests on polyvalent resistant (CH strain) houseflies. These doses of insecticide used without synergist caused 10-40% mortality.
The synergistic effect with GS 13005 of compounds I-A, I-B, I-D, I-E, I-F, I-G and I-I was determined from topical application tests to IN/WHO strain, Rutgers A strain and polyvalent CH strain houseflies using the procedures of Example 5. The percent kills of the IN/WHO strain flies after 24 hours are shown in Table XXVIII; of the Rutgers A strain, in Table XXIX; and of the polyvalent CH strain, in Table XXX. The doses of insecticide alone to the CH strain files caused 10-40% mortality.
The synergistic effect with Diazinon and GS 13005 of various of the benzyl 2-propynyl ethers identified in Tables II and IIa was determined by topical application tests on IN/WHO strain, and Rutgers A strain and polyvalent, resistant, CH strain houseflies using the procedures of Example 5. The percent kills after 24 hours of IN/WHO strain flies are shown in Table XXXI; of Rutgers A strain flies, in Table XXXII; and of CH strain flies, in Table XXXIII. The doses of insecticide alone to the CH strain flies caused 10-40% mortality.
The synergistic effect with pyrethrum of various synergist compounds was determined by topical application tests on polyvalent, resistant CH strain houseflies following the procedure of Example 5. Application of the insecticide alone caused 10-40% mortality.

[2] = test system: Wilson strain house flies; format: in vivo, Wilson strain (susceptible); details: for Contact Synergistic Ratio, Pyrolan: LC50 pyrolan alone / LC50 with synergist
Summary of the method: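 Wilson strain house flies held at room temperature in glass jars coated with acetone-deposited insecticide film, alone or with synergist at 5:1 synergist:insecticide by weight.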

[3] = test system: Swiss albino, white male mice; experiment: acute toxicity and synergism of acute toxicity in mice; format: in vivo; details: for number of mice dead, with Dimetilan: 48 hours; for number of mice dead, with Dimetilan / number of mice dead, synergist alone: eight mice; for number of mice dead, with GS 13005: GS 13005 71 + synergist 213 mg/kg; for number of mice dead, with Methadone: Methadone 32 + synergist 215 mg/kg; for number of mice dead, with Secobarbital: Secobarbital 90 + synergist 215 mg/kg; for number of mice dead, synergist alone: synergist 1000 mg/kg i.p., Dimetilan 0, 72 hours
Summary of the method: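 Male Swiss albino mice (23 to 27 g, five to six weeks), eight per dose, dosed intraperitoneally in corn oil: dimetilan alone at 4 to 32 mg per kg, synergists alone at 1000 mg/kg with deaths counted at 72 hours. For synergism, synergist given 1 hour before insecticide, lethality observed for at least 6 hours.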

[4] = test system: German male cockroaches (Blatella Germanicus); experiment: topical application to thorax, 24 hour mortality of German male cockroaches; format: in vivo; details: for percent insect mortality, synergist alone (GS 13005 test doses): synergist doses of Table XXXXI
Procedure: The synergistic effect with mobam of synergist compounds I-B, II-H, II-K and IV-C is further illustrated by the 24 hour mortality data of German male cockroaches (Blatella Germanicus) shown in Table XXXX. The synergists and insecticide were diluted in acetone and applied in small droplets to the thorax of the insect. These doses of synergist alone gave zero percent insect mortality.
The synergistic effect with GS 13005 of compounds I-B, II-H, II-K, II-P, II-Q, II-R and IV-C is illustrated by the 24 hour mortality of German male cockroaches shown in Table XXXXI. These doses of synergist alone caused zero percent insect mortality.

[5] = synergist to insecticide 5:1 by weight
[6] = Dimetilan 8 + synergist 80 mg/kg i.p.
[7] = Dimetilan 8 + synergist 240 mg/kg i.p.
[8] = GS 13005 dose 0.08 + synergist 0.40, pretreated with synergist two hours before insecticide

SMILES | percent kill after 24 hours, with Dimetilan [1] [%] | percent kill after 24 hours, with GS 13005 [1] [%] | mortality at 10 µg/fly [1] [%] | percent kill after 24 hours, with pyrethrum [1] [%] | percent kill after 24 hours, synergist alone [1] [%] | Contact Synergistic Ratio, Pyrolan [2, 5] | Contact Synergistic Ratio, Carbaryl ([2]; in vivo) | number of mice dead, with Dimetilan [3, 6] | number of mice dead, with Dimetilan [3, 7] | Contact Synergistic Ratio, Carbaryl ([2]; LC50 carbaryl alone / LC50 with synergist, synergist to insecticide 5:1 by weight) | percent kill after 24 hours, with GS 13798 [1] [%] | number of mice dead, with GS 13005 [3] | number of mice dead, with Methadone [3] | number of mice dead, with Secobarbital [3] | number of mice dead, synergist alone [3] | 24 hour mortality, with GS 13005 [4, 8] [%] | 24 hour mortality, with Mobam ([4]; Mobam dose 0.12 + synergist 0.60, pretreated with synergist two hours before insecticide) [%] | percent insect mortality, synergist alone (mobam test doses) ([4]; synergist doses of Table XXXX, no insecticide) | percent insect mortality, synergist alone (GS 13005 test doses) ([4]; no insecticide) | 24 hour mortality, with GS 13005 ([4]; GS 13005 dose 0.08 + synergist 4.0, cockroaches) [%]
C#CCON=C(C)c1ccc2ccccc2c1 [I-F] | 100 | 100 | 0 | 35 | 0 | 50 | 200 | 0 | 4 |  |  |  |  |  |  |  |  |  |  | 
C#CCOCc1ccc(Cl)c(Cl)c1 [II-C] | 100 |  | 0 |  | 0 | 15 |  |  | 0 | 100 |  |  |  |  |  |  |  |  |  | 
C#CCOCc1ccc(Cl)c(Cl)c1Cl [II-D] | 100 |  | 0 | 30 | 0 | 30 | 200 |  | 0 |  | 100 | 3 | 2 | 1 | 0 |  |  |  |  | 
C#CCOCc1c(Cl)ccc(Cl)c1Cl [II-E] |  | 100 | 10 |  | 10 | 20 | 120 |  | 0 |  | 100 |  |  |  |  |  |  |  |  | 
C#CCOCc1cc(Cl)c(Cl)cc1Cl [II-F] |  |  |  |  |  | 15 | 150 |  | 0 |  |  |  |  |  |  |  |  |  |  | 
C#CCOCc1c(Cl)cccc1[N+](=O)[O-] [II-K] |  |  |  |  |  |  |  | 0 | 6 |  |  | 3 | 2 | 1 | 1 | 100 | 100 | zero | zero | 
C#CCOCc1ccccc1[N+](=O)[O-] [II-P, 2-nitrobenzyl 2-propynyl ether] |  |  |  |  |  |  |  |  | 0 |  |  | 6 | 0 | 0 | 2 | 90 |  |  | zero | 60
C#CCOCc1ccc([N+](=O)[O-])cc1 [II-Q, 4-nitrobenzyl 2-propynyl ether] |  |  |  |  |  |  |  |  | 1 |  |  | 6 |  |  | 7 | 95 |  |  | zero | 
C#CCOCc1cccc2ccccc12 [II-R, α-napthylmethyl 2-propynyl ether] |  |  |  |  |  |  |  | 0 | 2 |  |  |  |  |  |  | 100 |  |  | zero | 
